Values after ≈ are worked out from the molar mass of the structure shown.
Experiments:
S. aureus NRS384 = experiment: Broth minimum inhibitory concentration (MIC) assay 2; assay type: cell-based, Staphylococcus aureus; details: S. aureus NRS384 in TSB, 24 hours at 37° C., OD600, median of at least two independent experiments; for MIC: Staphylococcus aureus, read-out: S. aureus Broth MIC
Protocol: To test the potency of rifamycin analogs of the disclosure in vitro, a broth growth inhibition assay was developed. For the assay, S. aureus NRS384 was grown in Tryptic Soy Broth (TSB) overnight, then sub-cultured 1:50 in fresh TSB and grown for an additional two hours. The culture was then pelleted via centrifugation and washed twice in PBS. The culture was then diluted to 1×10^6 cfu/mL in TSB and 100 μL of the suspension was added per well to a 2 mL dilution plate in triplicate. […] The plates were sealed and incubated at 37° C. with shaking for 24 hours, then 150 μL of each sample was added to 96 well microtiter plates and the OD600 nm was read on a Spectramax i3 Minimax 300.
The broth MIC experiments were assessed in at least two independent experiments and the median value is captured below unless indicated otherwise.

[1] = tested on: intracellular S. aureus NRS384 in THP-1 macrophages; experiment: Intracellular killing assay 2 (rifamycin analogs, S. aureus in THP-1 macrophages); assay type: cell-based, Staphylococcus aureus; details: lowest concentration giving intracellular S. aureus below limit of detection (50 cfu/mL) in THP-1 macrophages, median of at least two experiments; for MIC: Staphylococcus aureus, NRS384, 2 h, read-out: S. aureus Intracellular killing MIC
Protocol: THP-1 monocytic cell line was grown in media (RMPI+10% FBS+1% Penicillin/Streptomycin), then seeded at a density of 1e5 cells/well in a 96 well plate and differentiated into macrophages for three days prior to infection using 200 nM PMA. An overnight culture of S. aureus NRS384 was grown in RPMI, washed twice with PBS and resuspended at 1e7 cfu/mL in PBS. THP-1 were washed with warm media (RMPI without FBS) to remove the Penicillin/Streptomycin and then infected with the S. aureus suspension at a multiplicity of infection of 10:1 (S. aureus: macrophages). Plates were spun at 300×g for 5 minutes to synchronize adhesion of the bacteria, then incubated at 37° C. for 2 hours. Free-floating bacteria were removed by washing 2× with warm media and remaining extracellular S. aureus were killed by addition of media containing gentamicin (50 ug/mL). […] The compounds were added in media containing 50 µg/mL gentamicin to prevent extracellular growth of S. aureus. After 2 hours, plates were washed 2× with warm RPMI without FBS, and 100 ul of THP-1 lysis buffer (0.1% Triton in PBS) was added to each well. S. aureus survival was enumerated by colony forming units through serial dilution and plating onto TSA.
The intracellular MIC value indicated represents the median value of at least two independent experiments, unless indicated otherwise.

Row | SMILES | MIC (S. aureus NRS384) [µM] | MIC [1] [µM] | S. aureus Broth MIC (S. aureus NRS384) [µM] | S. aureus Intracellular killing MIC [1] [µM]
1 | CO[C@H]1/C=C/O[C@@]2(C)Oc3c(C)c(O)c4c(=O)c(c5oc6cc(OCC7CCN(C)CC7)cc(O)c6nc-5c4c3C2=O)NC(=O)/C(C)=C\C=C\[C@H](C)[C@H](O)[C@@H](C)[C@@H](O)[C@@H](C)[C@H](OC(C)=O)[C@@H]1C [Analog 29b] | 0.00391 (≈ 0.00363 µg/mL) | 0.04 (≈ 0.0371 µg/mL) | – | –
2 | CO[C@H]1/C=C/O[C@@]2(C)Oc3c(C)c(O)c4c(=O)c(c5oc6cc(OCCNCCN)ccc6nc-5c4c3C2=O)NC(=O)/C(C)=C\C=C\[C@H](C)[C@H](O)[C@@H](C)[C@@H](O)[C@@H](C)[C@H](OC(C)=O)[C@@H]1C [Analog 35] | 0.25 (≈ 0.222 µg/mL) | > 1 | – | –
3 | CO[C@H]1/C=C/O[C@@]2(C)Oc3c(C)c(O)c4c(=O)c(c5oc6cc(OCCN7CCCCCC7)ccc6nc-5c4c3C2=O)NC(=O)/C(C)=C\C=C\[C@H](C)[C@H](O)[C@@H](C)[C@@H](O)[C@@H](C)[C@H](OC(C)=O)[C@@H]1C [Analog 16n] | 0.0156 (≈ 0.0144 µg/mL) | 1 (≈ 0.926 µg/mL) | – | –
4 | COc1cc(OCCN(C)C)cc2oc3c4c(=O)c5c(O)c(C)c6c(c5c-3nc12)C(=O)[C@@](C)(O/C=C/[C@H](OC)[C@@H](C)[C@@H](OC(C)=O)[C@H](C)[C@H](O)[C@H](C)[C@@H](O)[C@@H](C)/C=C/C=C(/C)C(=O)N4)O6 [Analog 43] | 0.00391 (≈ 0.00353 µg/mL) | 0.04 (≈ 0.0361 µg/mL) | – | –
5 | CO[C@H]1/C=C/O[C@@]2(C)Oc3c(C)c(O)c4c(=O)c(c5oc6cc(OCCN(C)C(C)=O)ccc6nc-5c4c3C2=O)NC(=O)/C(C)=C\C=C\[C@H](C)[C@H](O)[C@@H](C)[C@@H](O)[C@@H](C)[C@H](OC(C)=O)[C@@H]1C [Analog 16z] | 0.00391 (≈ 0.00352 µg/mL) | > 1 | – | –
6 | CO[C@H]1/C=C/O[C@@]2(C)Oc3c(C)c(O)c4c(=O)c(c5oc6cc(OCCN(C)C)cc(SC)c6nc-5c4c3C2=O)NC(=O)/C(C)=C\C=C\[C@H](C)[C@H](O)[C@@H](C)[C@@H](O)[C@@H](C)[C@H](OC(C)=O)[C@@H]1C [Analog 60] | 0.00391 (≈ 0.00359 µg/mL) | 0.2 (≈ 0.184 µg/mL) | – | –
7 | CO[C@H]1/C=C/O[C@@]2(C)Oc3c(C)c(O)c4c(=O)c(c5oc6cc(OCCN(C)C)cc(O)c6nc-5c4c3C2=O)NC(=O)/C(C)=C\C=C\[C@H](C)[C@H](O)[C@@H](C)[C@@H](O)[C@@H](C)[C@H](OC(C)=O)[C@@H]1C [Analog 29] | 0.00391 (≈ 0.00347 µg/mL) | 0.04 (≈ 0.0355 µg/mL) | – | –
8 | CO[C@H]1/C=C/O[C@@]2(C)Oc3c(C)c(O)c4c(=O)c(c5oc6cc(OCC7CCCN7C)ccc6nc-5c4c3C2=O)NC(=O)/C(C)=C\C=C\[C@H](C)[C@H](O)[C@@H](C)[C@@H](O)[C@@H](C)[C@H](OC(C)=O)[C@@H]1C (stereo partly shown) [Analog 16l] | 0.00391 (≈ 0.00351 µg/mL) | 1 (≈ 0.898 µg/mL) | – | –
9 | CO[C@H]1/C=C/O[C@@]2(C)Oc3c(C)c(O)c4c(=O)c(c5oc6cc(OCCN(C)C(C)=O)cc(O)c6nc-5c4c3C2=O)NC(=O)/C(C)=C\C=C\[C@H](C)[C@H](O)[C@@H](C)[C@@H](O)[C@@H](C)[C@H](OC(C)=O)[C@@H]1C [Analog 29j] | 0.000977 (≈ 0.000895 µg/mL) | 0.04 (≈ 0.0366 µg/mL) | – | –
10 | CO[C@H]1/C=C/O[C@@]2(C)Oc3c(C)c(O)c4c(=O)c(c5oc6cc(OC7CCN(C)CC7)ccc6nc-5c4c3C2=O)NC(=O)/C(C)=C\C=C\[C@H](C)[C@H](O)[C@@H](C)[C@@H](O)[C@@H](C)[C@H](OC(C)=O)[C@@H]1C [Analog 17] | 0.0156 (≈ 0.014 µg/mL) | 0.2 (≈ 0.18 µg/mL) | – | –
11 | CO[C@H]1/C=C/O[C@@]2(C)Oc3c(C)c(O)c4c(=O)c(c5oc6cc(OCCN(C)C)cc(F)c6nc-5c4c3C2=O)NC(=O)/C(C)=C\C=C\[C@H](C)[C@H](O)[C@@H](C)[C@@H](O)[C@@H](C)[C@H](OC(C)=O)[C@@H]1C [Analog 55] | 0.0156 (≈ 0.0139 µg/mL) | 0.2 (≈ 0.178 µg/mL) | – | –
12 | CO[C@H]1/C=C/O[C@@]2(C)Oc3c(C)c(O)c4c(=O)c(c5oc6cc(OCc7ccccc7CN(C)C)ccc6nc-5c4c3C2=O)NC(=O)/C(C)=C\C=C\[C@H](C)[C@H](O)[C@@H](C)[C@@H](O)[C@@H](C)[C@H](OC(C)=O)[C@@H]1C [Analog 16w] | 0.0625 (≈ 0.0593 µg/mL) | > 1 | – | –
13 | CCN(CC)CCOc1ccc2nc3c4c5c6c(C)c(O)c4c(=O)c(c-3oc2c1)NC(=O)/C(C)=C\C=C\[C@H](C)[C@H](O)[C@@H](C)[C@@H](O)[C@@H](C)[C@H](OC(C)=O)[C@H](C)[C@@H](OC)/C=C/O[C@@](C)(O6)C5=O [Analog 16t] | 0.0625 (≈ 0.0563 µg/mL) | 1 (≈ 0.9 µg/mL) | – | –
14 | CO[C@H]1/C=C/O[C@@]2(C)Oc3c(C)c(O)c4c(=O)c(c5oc6cc(F)ccc6nc-5c4c3C2=O)NCC(=O)/C(C)=C\C=C\[C@H](C)[C@H](O)[C@@H](C)[C@@H](O)[C@@H](C)[C@H](O)[C@@H]1C [Analog P2] | – | – | 0.0625 | >1
15 | CO[C@H]1/C=C/O[C@@]2(C)Oc3c(C)c(O)c4c(=O)c(c5oc6cc(OCCNC(C)=O)cc(O)c6nc-5c4c3C2=O)NC(=O)/C(C)=C\C=C\[C@H](C)[C@H](O)[C@@H](C)[C@@H](O)[C@@H](C)[C@H](OC(C)=O)[C@@H]1C [Analog 29i] | 0.00244 (≈ 0.0022 µg/mL) | 0.2 (≈ 0.18 µg/mL) | – | –
16 | CCCCOc1cc(OCCN(C)C)cc2oc3c4c(=O)c5c(O)c(C)c6c(c5c-3nc12)C(=O)[C@@](C)(O/C=C/[C@H](OC)[C@@H](C)[C@@H](OC(C)=O)[C@H](C)[C@H](O)[C@H](C)[C@@H](O)[C@@H](C)/C=C/C=C(/C)C(=O)N4)O6 [Analog 50] | 0.0156 (≈ 0.0147 µg/mL) | 1 (≈ 0.944 µg/mL) | – | –
17 | CO[C@H]1/C=C/O[C@@]2(C)Oc3c(C)c(O)c4c(=O)c(c5oc6cc(O)cc(F)c6nc-5c4c3C2=O)NC(=O)/C(C)=C\C=C\[C@H](C)[C@H](O)[C@@H](C)[C@@H](O)[C@@H](C)[C@H](OC(C)=O)[C@@H]1C [Analog 55a] | 0.0625 (≈ 0.0512 µg/mL) | > 1 | – | –
18 | CO[C@H]1/C=C/O[C@@]2(C)Oc3c(C)c(O)c4c(=O)c(c5oc6cc(OCCN(C)c7ccccn7)ccc6nc-5c4c3C2=O)NC(=O)/C(C)=C\C=C\[C@H](C)[C@H](O)[C@@H](C)[C@@H](O)[C@@H](C)[C@H](OC(C)=O)[C@@H]1C [Analog 16v] | 0.0625 (≈ 0.0584 µg/mL) | 1 (≈ 0.935 µg/mL) | – | –
19 | CO[C@H]1/C=C/O[C@@]2(C)Oc3c(C)c(O)c4c(=O)c(c5oc6cc(C#CCN(C)C)ccc6nc-5c4c3C2=O)NC(=O)/C(C)=C\C=C\[C@H](C)[C@H](O)[C@@H](C)[C@@H](O)[C@@H](C)[C@H](OC(C)=O)[C@@H]1C [Analog 72] | 0.0625 (≈ 0.0541 µg/mL) | > 1 | – | –
20 | CO[C@H]1/C=C/O[C@@]2(C)Oc3c(C)c(O)c4c(=O)c(c5oc6cc(OCCN7CC8CCC7C8)ccc6nc-5c4c3C2=O)NC(=O)/C(C)=C\C=C\[C@H](C)[C@H](O)[C@@H](C)[C@@H](O)[C@@H](C)[C@H](OC(C)=O)[C@@H]1C [Analog 16q] | 0.00391 (≈ 0.00361 µg/mL) | 1 (≈ 0.924 µg/mL) | – | –
21 | CO[C@H]1/C=C/O[C@@]2(C)Oc3c(C)c(O)c4c(=O)c(c5oc6ccc(OCCN(C)C)cc6nc-5c4c3C2=O)NC(=O)/C(C)=C\C=C\[C@H](C)[C@H](O)[C@@H](C)[C@@H](O)[C@@H](C)[C@H](OC(C)=O)[C@@H]1C [Analog 38] | 0.0625 (≈ 0.0545 µg/mL) | 1 (≈ 0.872 µg/mL) | – | –
22 | CO[C@H]1/C=C/O[C@@]2(C)Oc3c(C)c(O)c4c(=O)c(c5oc6cc(OCC7CCN(C)C7)cc(O)c6nc-5c4c3C2=O)NC(=O)/C(C)=C\C=C\[C@H](C)[C@H](O)[C@@H](C)[C@@H](O)[C@@H](C)[C@H](OC(C)=O)[C@@H]1C (stereo partly shown) [Analog 29a] | 0.00391 (≈ 0.00357 µg/mL) | 0.04 (≈ 0.0366 µg/mL) | – | –
23 | CO[C@H]1/C=C/O[C@@]2(C)Oc3c(C)c(O)c4c(=O)c(c5oc6cc(OCCN7CC8CCC7C8)cc(O)c6nc-5c4c3C2=O)NC(=O)/C(C)=C\C=C\[C@H](C)[C@H](O)[C@@H](C)[C@@H](O)[C@@H](C)[C@H](OC(C)=O)[C@@H]1C [Analog 29d] | 0.00391 (≈ 0.00368 µg/mL) | 0.04 (≈ 0.0376 µg/mL) | – | –
24 | CO[C@H]1/C=C/O[C@@]2(C)Oc3c(C)c(O)c4c(=O)c(c5oc6cc(OC7CCN(C)CC7)cc(O)c6nc-5c4c3C2=O)NC(=O)/C(C)=C\C=C\[C@H](C)[C@H](O)[C@@H](C)[C@@H](O)[C@@H](C)[C@H](OC(C)=O)[C@@H]1C [Analog 68] | 0.0156 (≈ 0.0143 µg/mL) | 0.2 (≈ 0.183 µg/mL) | – | –
25 | CO[C@H]1/C=C/O[C@@]2(C)Oc3c(C)c(O)c4c(=O)c(c5oc6cc(OCCN7CCC7)ccc6nc-5c4c3C2=O)NC(=O)/C(C)=C\C=C\[C@H](C)[C@H](O)[C@@H](C)[C@@H](O)[C@@H](C)[C@H](OC(C)=O)[C@@H]1C [Analog 16z-1] | 0.00391 (≈ 0.00346 µg/mL) | 1 (≈ 0.884 µg/mL) | – | –
26 | CO[C@H]1/C=C/O[C@@]2(C)Oc3c(C)c(O)c4c(=O)c(c5oc6cc(CCCN(C)C)ccc6nc-5c4c3C2=O)NC(=O)/C(C)=C\C=C\[C@H](C)[C@H](O)[C@@H](C)[C@@H](O)[C@@H](C)[C@H](OC(C)=O)[C@@H]1C [Analog 75] | 0.29 (≈ 0.252 µg/mL) | > 1 | – | –
